{"source": "patent US20070218121A1", "about": "“Compounds that inhibit caspase activity for treating glaucoma” (priority 1997, published 2007)", "test_system": "HEK-293-nNOS cells transfected with mICE-lacZ (caspase-1)", "assay": "Inhibition of caspase-induced apoptosis by endogenous NO in HEK-293-nNOS cells transfected with mICE-lacZ (propidium iodide, apoptotic nuclei count)", "assay_type": "cell-based", "conditions": "6 μM 4-Br-A23187 for 48 h after caspase-1 transfection; raises Ca2+ to activate nNOS and produce NO; p≦0.007; FIG. 1", "method": "HEK-293 cells [Bredt et al., Nature 351: 714-719 (199)] overexpressing nNOS were transiently transfected with mICE-lacZ (containing the caspase-1 construct [Miura et al., Cell 75: 653-660 (1993)] or control placZ using the calcium phosphate precipitation method. Following transfection, cells were incubated in absence (0 μM) or presence of 6 μM 4-Br-A23187 for 48 h. Cells were then permeabilized, fixed, and stained with propidium iodide. Apoptotic nuclei were counted in ≧12 fields and results expressed as a percentage of total nuclei. The results are shown in FIG. 1. Values are the mean ± SEM for n≧3 from at least two experiments."}
{"smiles": "CNc1c(Br)cc2oc(C[C@H]3OC4(CC[C@H]3C)O[C@H]([C@H](C)C(=O)c3ccc[nH]3)[C@H](C)C[C@H]4C)nc2c1C(=O)O", "note": "(stereo partly shown) [4-Br-A23187]", "values": [{"measurement": "apoptosis (apoptotic nuclei as percentage of total nuclei)", "value": "highly significant decrease in apoptosis"}]}
